The values that follow come from publication PMC12384447, “Effect of a Novel Antidepressant and Anticancer Nuc01 on Depression in Cancer Survivors” (Current Issues in Molecular Biology, 2025).

Structures are written as SMILES.

By IC50 is commonly meant the concentration that gives 50% inhibition.

This experiment concerns the target T1, LSD1 (lysine-specific demethylase 1) (Homo sapiens, UniProt O60341).
T1 construct: gene KDM1A; residues 172–852
The experiment in a line: TR-FRET (LANCE) demethylase assay with biotinylated histone H3K4me1 peptide. It is filed as biochemical.

`CN(C)CC(c1ccc(OC(=O)N(C)CCN(C)C2CC2c2ccccc2)cc1)C1(O)CCCCC1` (stereo not shown) [Nuc01]: the IC50 was found to be 530 nM. This counts as sub-micromolar.
